According to patent publication US7605280B2, “Anthraquinone and its derivatives” (Biostatus Limited, priority 1998, dated 2009):

Tested on: viable HL60 cells
Assay: CLSM analysis of nuclear fluorescence in viable cells
Format: cell-based, human
Conditions: 10 μM for 1 h
Source text: The system used was a Leica TCS 4D (LaserTechnik Gmbh, Germany) scanner coupled to a Leitz DM R microscope and operating with an Ominchrome argon/krypton laser. The laser provided emission lines at 488, 568 and 647 nm with variable power. Coverslip cultures were washed briefly in PBS, mounted in inverted positions on glass slides, the coverslips being supported at the edges by a piping of petroleum jelly to prevent the cells from being compressed. The slides were examined immediately using ×100 or ×40 oil immersion objective lenses with mid-range pinhole and photomultiplier gain settings. Excitation/emission wavelengths for DRAQ5, fluorescein and rhodamine 123 were 647 nm/>665 nm, 488 nm/>515 nm and 488 nm/>590 nm respectively. Gain settings were adjusted such that the most fluorescent drug-treated sample gave pixel intensities just below saturation. The black level/offset was adjusted to give effectively zero background (<4 for pixel value) after 16× line noise filtration of images for untreated controls. […]
Thus, FIG. 2h to k show simultaneous CLSM capture of transmission (panels h and j) and the corresponding far red/low infra-red fluorescence (panels i and […] respectively) images of viable HL60 cells exposed to either 10 μM DRAQ5 or 10 μM DRAQ5N for 1 h. • 1. […]

With `CN(C)CCNc1ccc(O)c2c1C(=O)c1c(O)ccc(NCCN(C)C)c1C2=O` [DRAQ5] the “integrated nuclear fluorescence intensity per nucleus section, DRAQ5 relative to DRAQ5N-treated cells” value was “approximately 10 fold”.
